Assay results as given in patent US10856562B2, “Flavor composition and edible compositions containing same” (MARS, INCORPORATED, priority 2013, dated 2020).
Square brackets hold non-standard residues; d marks the D form. Ends that are not written are not given here. pGlu = O=C1CC[C@@H](C(=O)O)N1

Test system: panelists
Test: Consensus attribute scores of flavor enhancers in Uncle Ben's Garden Vegetable Ready rice
Format: in vivo, human
Design: key to Cooked White Rice / Vegetable Oil / Vegetable Complex / Cooked Green Vegetable / Cooked Corn / Sweet (BASIC TASTES) / Salt (BASIC TASTES) / Mouthdrying (Texture) / Residual Mouthcoating (Texture) / Total Aromatics / Bitter (BASIC TASTES): 15-point scale, 0 = none, 15 = very strong
Settings: for Black Pepper / Cooked Corn / Cooked Green Vegetable / Cooked White Rice / Dehydrated onion/garlic / HVP/Brothy / Heat (Chemical Feeling Factors) / Mineral/Flint / Mouthdrying (Texture) / Residual Mouthcoating (Texture) / Salt (BASIC TASTES) / Sweet (BASIC TASTES) / Total Aromatics / Umami (Chemical Feeling Factors) / Vegetable Complex / Vegetable Oil: rice
Method: Descriptive attributes (e.g., taste, flavor and chemical feeling factors) of three use levels of pGlu-Cys (FE-35), pGlu-Cys-Gly (FE-36), pGlu-Cys-Cys (FE-37), pGlu-Cys-Val (FE-38) and pGlu-Val-Cys (UE-30) flavor composition peptides were determined. The three use levels were as follows: 1.0 ppb, 10.0 ppb and 100.0 ppb.
Data was collected for the attributes of the product in-mouth for the use levels according to the following protocol: • The samples were analyzed for flavor by six to nine members of a panel, trained and experienced in flavor evaluation using the Spectrum™ method. Samples were evaluated across multiple panel sessions. • The strength of each attribute was rated on a 15-point scale, where 0=none and 15=very strong. • This scale incorporates the ability to use tenths of a point and therefore has the potential of 150 scale differentiations. • The scale may be expanded beyond 15 points to include extreme ratings if necessary.
Preparation of Rice Samples • Each flavor enhancer was tested in Uncle Ben's Garden Vegetable Ready rice matrix at 3 different concentrations: 1 ppb, 10 ppb and 100 ppb. A total of 15 points with flavor enhancers were prepared for sensory evaluation. Additionally, 15 control samples were prepared. Each point had 2 samples (test and control) and was made from one pouch of rice. • Directions to prepare the solutions: • The 15 ready- to eat pouches were microwaved according to the procedure found on the back of the pouch: (1) squeeze pouch to separate rice, (2) tear two inches to vent, (3) heat on High for 90 seconds and (4) remove from microwave using COOL TOUCH area on untorn side. • From each pouch 124.75 g (test sample) and 99.8 g (control) were weighed out. The test sample had the flavor enhancer and/or salt. The control sample only had salt added. • The flavor enhancer and/or salt (non-iodized salt) were weighed in a soufflé cup. The weighed amount of flavor enhancer and/or salt was added to the sub-sampled rice. The rice was stirred and mixed to evenly distribute the salt added. • Some rice was placed back into the soufflé cup, sealed, and the cup was shook to get the flavor enhancer and/or salt that may have been stuck on the walls of the soufflé cup. After shaking the soufflé cup, the rice was added back to the original sub-sampled rice and stirred/mixed again. • Each sample (test and control) was microwaved for another 30 seconds (or until warm) to ensure that the salts/compounds were going completely into the solutions. • All samples (test and control) were tasted at the same temperature. • Each test sample had 0.2% NaCl added and flavor enhancers at the specified concentrations.
A summary of the concentrations of NaCl and flavor composition peptides in the rice samples is described in table 23. The first value of each cell represents a single sample amount of an ingredient in milligrams, and the second number in parenthesis is a doubling of the ingredient (in grams) for use in a doubled size sample.
The panelists evaluated each sample for the attributes described by table 25.

Substance: [pGlu]-Cys [FE-35]
- Umami feeling factor in rice compared to the Control (10 & 100 ppb): higher
- Salt in rice compared to the Control (100 ppb): saltier than the Control
- Heat in rice, not seen in the Control (all concentrations): low level
- Cooked green vegetable in rice compared to the Control (all samples (1, 10, 100 ppb)): low level of cooked green vegetable
- Mouthdrying in rice, not seen in the Control (all samples (1, 10, 100 ppb)): low level
- Total aromatics in rice (at 50 ppm): slightly lower
- Black Pepper (1.0 ppb (5 ppm)): 1.0
- Cooked Corn (1.0 ppb (5 ppm)): 0.5
- Cooked Green Vegetable (1.0 ppb (5 ppm)): 0.5
- Cooked White Rice (1.0 ppb (5 ppm)): 3.0
- Dehydrated onion/garlic (1.0 ppb (5 ppm)): 0.8
- HVP/Brothy (1.0 ppb (5 ppm)): 1.0
- Heat (Chemical Feeling Factors) (1.0 ppb (5 ppm)): 0.8
- Mineral/Flint (1.0 ppb (5 ppm)): 0.8
- Mouthdrying (Texture) (1.0 ppb (5 ppm)): 1.5
- Residual Mouthcoating (Texture) (1.0 ppb (5 ppm)): 1.0
- Salt (BASIC TASTES) (1.0 ppb (5 ppm)): 13.0
- Sweet (BASIC TASTES) (1.0 ppb (5 ppm)): 3.5
- Total Aromatics (1.0 ppb (5 ppm)): 6.3
- Umami (Chemical Feeling Factors) (1.0 ppb (5 ppm)): 1.0
- Vegetable Complex (1.0 ppb (5 ppm)): 1.0
- Vegetable Oil (1.0 ppb (5 ppm)): 0.5
- Black Pepper (10.0 ppb (50 ppm)): 0.8
- Cooked Corn (10.0 ppb (50 ppm)): 0.8
- Cooked Green Vegetable (10.0 ppb (50 ppm)): 0.8
- Cooked White Rice (10.0 ppb (50 ppm)): 3.0
- Dehydrated onion/garlic (10.0 ppb (50 ppm)): 0.8
- HVP/Brothy (10.0 ppb (50 ppm)): 1.0
- Heat (Chemical Feeling Factors) (10.0 ppb (50 ppm)): 0.5
- Mineral/Flint (10.0 ppb (50 ppm)): 1.3
- Mouthdrying (Texture) (10.0 ppb (50 ppm)): 1.0
- Residual Mouthcoating (Texture) (10.0 ppb (50 ppm)): 1.0
- Salt (BASIC TASTES) (10.0 ppb (50 ppm)): 13.5
- Sweet (BASIC TASTES) (10.0 ppb (50 ppm)): 3.5
- Total Aromatics (10.0 ppb (50 ppm)): 6.0
- Umami (Chemical Feeling Factors) (10.0 ppb (50 ppm)): 3.0
- Vegetable Complex (10.0 ppb (50 ppm)): 1.3
- Vegetable Oil (10.0 ppb (50 ppm)): 0.5
- Black Pepper (100 ppb (50 ppm)): 1.0
- Cooked Corn (100 ppb (50 ppm)): 0.8
- Cooked Green Vegetable (100 ppb (50 ppm)): 0.8
- Cooked White Rice (100 ppb (50 ppm)): 3.0
- Dehydrated onion/garlic (100 ppb (50 ppm)): 1.0
- HVP/Brothy (100 ppb (50 ppm)): 1.0
- Heat (Chemical Feeling Factors) (100 ppb (50 ppm)): 0.5
- Mineral/Flint (100 ppb (50 ppm)): 1.0
- Mouthdrying (Texture) (100 ppb (50 ppm)): 1.0
- Residual Mouthcoating (Texture) (100 ppb (50 ppm)): 1.0
- Salt (BASIC TASTES) (100 ppb (50 ppm)): 15.0
- Sweet (BASIC TASTES) (100 ppb (50 ppm)): 3.5
- Total Aromatics (100 ppb (50 ppm)): 6.5
- Umami (Chemical Feeling Factors) (100 ppb (50 ppm)): 4.0
- Vegetable Complex (100 ppb (50 ppm)): 1.5
- Vegetable Oil (100 ppb (50 ppm)): 0.8
